Reference: the supplement of paper PMC11208160

Assay: recombinant barcode read abundance after kanamycin selection (control-corrected) (log10(CPM+1)); higher = more efficient recombination; sequences stand for … in AGTGCAGAGAAAATCGGCCAGTTTTCTCTGCCTGCAGTCCGCATGCCGT…AGATTTATGCAGCGGACTGCCTTTCTCCCAAAGTGATAAACCGGACAGTATCATGGACCGGTTTTCCCGGTAATCCGTATTTGCAAGGTTGGTTTCACT; site = the 11-nt target
Outline: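 Recombination efficiency was calculated from barcode counts at recombinant junctions, normalized to counts per million, averaged and corrected by the control. Each value is given as log10(CPM+1). The constructs were Gibson-cloned oligos (promoter, target, barcode, J23119-driven first 104 bridge RNA bases) in a vector with the remaining 73 bp and a T7-inducible recombinase, co-electroporated into E. coli with a donor plasmid and plated in duplicate on chloramphenicol/ampicillin LB agar (control) or chloramphenicol/ampicillin/kanamycin with 0.1 mM IPTG.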
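Further: IS621 recombinase and bridge RNA in Escherichia coli cells.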

| Sequence | recombinant barcode read abundance (log10) |
| --- | --- |
| TACGTGGCTTGGGTTCTAACCTGTTGCCT (site TACGAGGCTAG) | 0.182 |
| TACGTGGCTTGGGTTCTAACCTGTTGCCT (site TACGCGGCTAG) | 0.0139 |
| TACGTGGCTTGGGTTCTAACCTGTTGCCT (site TACGGGGCTAG) | 0.502 |
| TACGTGGCTTGGGTTCTAACCTGTTGCCT (site TACGTGGCTAG) | 0.825 |
| TACGTGTCTTGGGTTCTAACCTGTTGCTA (site TACGTGTCTTA) | 2.19 |
| TACGTGTCTTGGGTTCTAACCTGTTGCTA (site TGCGTGTCTCA) | 0.051 |
| TACTAACCTTGGGTTCTAACCTGTTGCCT (site CATTAACCTAG) | 0.0235 |
| TACTAACCTTGGGTTCTAACCTGTTGCCT (site TACTAACCTAG) | 0.752 |
| TACTACCCTTGGGTTCTAACCTGTTGCCA (site TACTACCCTTG) | 0.606 |
| TACTACCCTTGGGTTCTAACCTGTTGCCA (site TAGTATCCTTG) | 0.0944 |
| TACTACCCTTGGGTTCTAACCTGTTGCCT (site TACTACCCTAG) | 1.46 |
| TACTACCCTTGGGTTCTAACCTGTTGCCT (site TCCTACCCTAG) | 0.126 |
| TACTACCCTTGGGTTCTAACCTGTTGCCT (site TGCTACCCTAG) | 0.0397 |
| TACTACCCTTGGGTTCTAACCTGTTGCCT (site TTCTACCCTAG) | 0.0291 |
| TACTGGGCTTGGGTTCTAACCTGTTGCGG (site TACTGGGCTCA) | 0.316 |
| TACTGGGCTTGGGTTCTAACCTGTTGCGG (site TACTGGGCTCC) | 2.2 |
| TACTTACCTTGGGTTCTAACCTGTTGCCT (site TACTTACCTAG) | 0.362 |
| TACTTACCTTGGGTTCTAACCTGTTGCCT (site TTCTTACCTAG) | 0.0922 |
| TACTTAGCTTGGGTTCTAACCTGTTGCCG (site TACTTAGCTCG) | 0.075 |
| TACTTAGCTTGGGTTCTAACCTGTTGCCG (site TAGTTACCTCG) | 0.0382 |
| TAGAACCCTTGGGTTCTAACCTGTTGCTT (site TAGAACCCTAA) | 0.367 |
| TAGAACCCTTGGGTTCTAACCTGTTGCTT (site TAGATCCCTAA) | 0.0967 |

| Sequence | recombinant barcode read abundance (log10) |
| --- | --- |
| TAGAACTCTTGGGTTCTAACCTGTTGCCC (site TAGAACTCTAG) | 0.296 |
| TAGAACTCTTGGGTTCTAACCTGTTGCCC (site TAGAACTCTCG) | 0.0614 |
| TAGAACTCTTGGGTTCTAACCTGTTGCCC (site TAGAACTCTGG) | 0.427 |
| TAGAACTCTTGGGTTCTAACCTGTTGCCC (site TAGAACTCTTG) | 0.0327 |
| TAGAACTCTTGGGTTCTAACCTGTTGCGC (site ACATTTCCTAT) | 0.0572 |
| TAGAACTCTTGGGTTCTAACCTGTTGCGC (site TAGAACTCTGC) | 1 |
| TAGAAGCCTTGGGTTCTAACCTGTTGCCG (site TACAAGCCTAG) | 0.0659 |
| TAGAAGCCTTGGGTTCTAACCTGTTGCCG (site TAGAAGCCTCG) | 1.62 |
| TAGAAGGCTTGGGTTCTAACCTGTTGCGT (site TAGAAGGCTAA) | 0.445 |
| TAGAAGGCTTGGGTTCTAACCTGTTGCGT (site TAGAAGGCTAC) | 2.75 |
| TAGAAGGCTTGGGTTCTAACCTGTTGCGT (site TAGAAGGCTAG) | 0.273 |
| TAGAAGGCTTGGGTTCTAACCTGTTGCGT (site TAGAAGGCTAT) | 1.96 |
| TAGAATGCTTGGGTTCTAACCTGTTGCTT (site TAGAATGCTAA) | 0.285 |
| TAGAATGCTTGGGTTCTAACCTGTTGCTT (site TAGAATGCTAG) | 0.148 |
| TAGACATCTTGGGTTCTAACCTGTTGCAT (site AAGACATCTAA) | 0.133 |
| TAGACATCTTGGGTTCTAACCTGTTGCAT (site TAGACATCTAT) | 0.353 |
| TAGACCACTTGGGTTCTAACCTGTTGCAC (site CTATATGCTAA) | 0.0777 |
| TAGACCACTTGGGTTCTAACCTGTTGCAC (site TAGACCACTGT) | 0.954 |
| TAGAGAGCTTGGGTTCTAACCTGTTGCGG (site TAAAGAGCTCC) | 1.57 |
| TAGAGAGCTTGGGTTCTAACCTGTTGCGG (site TACAGAGCTCC) | 0.202 |
| TAGAGAGCTTGGGTTCTAACCTGTTGCGG (site TAGAGAGCTCC) | 2.09 |
